From US6218112A, “Optimization of gene delivery and gene delivery system” (Cobra Therapeutics Limited, priority 1997, dated 2001)
pKd: −log10 of the molar value. Like-named read-outs stand apart in the source and are kept apart here. * marks the point of attachment. Acm = CC(=O)NC*

Tested on: plasmid nucleic acid pRSVLuc
Assay: Surface plasmon resonance (BIAcore) binding kinetics of peptides/conjugates to immobilized biotinylated plasmid DNA
Conditions: for ka: apparent rate constant for association; for pKd: read-out: equilibrium dissociation constant KD

Which ka (SPR, PBS, 25° C.) does the source give for “NH2-TKKAWKKAEKKAAKKCGVSAKKAAKKAWKKA-CONH2 (H-TKKAWKKAEKKAAKKCGVSAKKAAKKAWKKA-NH2) [NBC11]” here?
The ka was 20700 M⁻¹ s⁻¹.

And the pKd (approximate value, unit inferred)?
The pKd was ~9.30.

And the “apparent dissociation constant kd” value (approximate values)?
The value was “approximately 1.6×10^-4 sec^-1”.

What about the association reaction (shape of association kinetics) of the same substance?
Its association reaction is “clear biphasic kinetics”.

With “NH2-KKSPKKAKKPAAKKSPKKAKKPAYC(Acm)-COOH (H-KKSPKKAKKPAAKKSPKKAKKPAYC(Acm)-OH; SMILES CC(=O)NCSC[C@H](NC(=O)[C@H](Cc1ccc(O)cc1)NC(=O)[C@H](C)NC(=O)[C@@H]1CCCN1C(=O)[C@H](CCCCN)NC(=O)[C@H](CCCCN)NC(=O)[C@H](C)NC(=O)[C@H](CCCCN)NC(=O)[C@H](CCCCN)NC(=O)[C@@H]1CCCN1C(=O)[C@H](CO)NC(=O)[C@H](CCCCN)NC(=O)[C@H](CCCCN)NC(=O)[C@H](C)NC(=O)[C@H](C)NC(=O)[C@@H]1CCCN1C(=O)[C@H](CCCCN)NC(=O)[C@H](CCCCN)NC(=O)[C@H](C)NC(=O)[C@H](CCCCN)NC(=O)[C@H](CCCCN)NC(=O)[C@@H]1CCCN1C(=O)[C@H](CO)NC(=O)[C@H](CCCCN)NC(=O)[C@@H](N)CCCCN)C(=O)O) [NBC8]” as the substance, how does the ka (SPR, PBS, 25° C.) read?
The ka was 50000 M⁻¹ s⁻¹.

What about the kd (apparent rate constant for dissociation, SPR, PBS, 25° C.) of the same substance?
Its kd is 0.06248 s⁻¹.

What about the “apparent dissociation constant kd” value (approximate values) of the same substance?
Its value is “approximately 1×10^-2 sec^-1”.

And the pKd (approximate values)?
The pKd was ~6.00.
